Reference: patent publication US5409938A, “Antimalarial korupensamines and pharmaceutical compositions and medical uses thereof” (The United States of America as represented by the …, priority 1994, dated 1995)
≈ marks a conversion by molar mass, not a printed value. Values belong to the molecule of their own block, whether it stands above or below them.

Assays:
[1] = Bringmann, et al., DE 41 17 080; cited from earlier work
Plasmodium falciparum = test: in vitro antimalarial activity, 3H-hypoxanthine incorporation, P. falciparum (strain NF 54/64, clone A1A9) in human erythrocytes; type: cell-based; conditions: averages of 6 repeat tests
Procedure: This example illustrates the antimalarial activity of the korupensamines of the present invention. […] Continuous in vitro cultures of asexual erythrocytic stages of P. falciparum (strain NF 54/64, clone A1A9) were maintained following essentially the method of Trager and Jensen (Science, 193, 673-675, 1976) at 37° C. under an atmosphere of 5% CO2, 5% O2, and 90% N2. The host cells were human erythrocytes (A or O Rh+). The culture medium was RPMI 1640 (Gibco), containing HEPES (BDH; 4.57 gL^-1) glucose (Sigma; 1.54 gL^-1), 5% NaHCO3 (Merck; 34.78 mlL^-1),and gentamycin (Merck; 8.70 mlL^-1) supplemented with 10% human plasma (A Rh+). Parasites were subinoculated every 3-4 days with initial conditions of 1% parasitemia and 1% hematocrit.
In vitro testing with P. falciparum was as follows. Each compound was dissolved in DMSO at a concentration of 20 mg ml^-1. These solutions were further diluted with physiological saline to obtain a stock solution of 500 μg ml^-1. […]
The test protocol was performed in vitro, based upon the method of Desjardins, et al. (Antimicrobial Agents Chemother., 16, 710-718, 1979). […] The filter papers were dried for 2 h at 52° C. and their radioactivity was measured by liquid scintillation counting in Optiscint HiSafe (LKB Pharmacia).
The mean results, obtained as counts per min (cpm), were expressed as percentages of incorporation or growth inhibition. […]

Plasmodium berghei = test: in vitro antimalarial activity, 3H-hypoxanthine incorporation, P. berghei (Anka strain); type: cell-based; conditions: averages of 6 repeat tests
P. berghei (Anka strain) = test: in vivo antimalarial activity in P. berghei-infected OF1 mice, parasitemia from blood smears after 4 days
Procedure: Outbred, female, six-week-old OF1 mice (six mice per group treated and nontreated [control]) were inoculated intraperitoneally on day 0 with 10^6 P. berghei (Anka strain) blood forms. Two hours later, they were administered orally 50 mg/kg of korupensamine A. A second, third, and fourth treatment (50 mg/kg each) was given after 24, 48, and 72 h respectively (days 1, 2, and 3). […] The parasitemia (%) in the control (not drug treated) group was 2.45 (range 2.21-2.69; N=6) compared to 0.69 (range 0.48-0.91; N=6) for the treated group.

Spodoptera littoralis = conditions: larvae of Spodoptera littoralis; Grimm 1992; Bringmann 1992; cited from earlier work
[2] = Sharma, et al., 1975; cited from earlier work
[3] = Ruangrungsi, et al., 1985; cited from earlier work

SMILES: COc1cc(C)cc2ccc(-c3ccc4c(c3O)[C@@H](C)N[C@H](C)C4)c(O)c12 [Dioncophylline B]
activity as fungicides [1]: active as fungicides

IC50 P. faciparum (Plasmodium falciparum; NP54/64, clone A1A9): 0.175 µg/mL (≈ 0.461 µM)
IC50 P. berghei (Plasmodium berghei): 0.490 µg/mL (≈ 1.29 µM)
SMILES: COc1cc(C)cc2c(-c3c(O)cc(O)c4c3C[C@@H](C)N[C@@H]4C)ccc(O)c12 [korupensamine B]

IC50 (Plasmodium falciparum; Plasmodium falciparum, Erythrocyte, NP54/64, clone A1A9, read-out: IC50 P. faciparum): 0.307 µg/mL (≈ 0.809 µM)
IC50 (Plasmodium berghei; Plasmodium berghei): 0.555 µg/mL (≈ 1.46 µM)
SMILES: COc1cc(C)cc2c(-c3c(O)cc(O)c4c3C[C@@H](C)N[C@@H]4C)ccc(O)c12 [korupensamine A]
parasitemia (%) in the treated group (P. berghei (Anka strain); 50 mg/kg orally x4 (2 h after inoculation, then 24, 48, 72 h), after 4 days, N=6, control 2.45 (range 2.21-2.69; N=6)): 0.69 (range 0.48-0.91; N=6) %
inhibition of the development of P. berghei erythrocytic forms (P. berghei (Anka strain); 50 mg/kg orally x4, blood smears after 4 days): marked inhibition of the development of P. berghei erythrocytic forms

SMILES: COc1cccc2c(-c3ccc4c(c3O)C(C)NC(C)C4)c(C)cc(OC)c12 (centres unmarked) [dioncophylline A]
activity as fungicides [1]: active as fungicides
antifeedant effect (Spodoptera littoralis): antifeedant effect against the larvae of Spodoptera littoralis

SMILES: COc1cc2c(c(OC)c1-c1c(C)cc3cccc(OC)c3c1O)C(C)=N[C@@H](C)C2 [ancistrocladidine]
spasmolytic activity [2]: pronounced spasmolytic activity

SMILES: COc1cc2c(c(OC)c1-c1c(C)cc3cccc(OC)c3c1O)[C@@H](C)N(C)[C@@H](C)C2 [ancistrotectorine]
antitumor activity [3]: antitumor activity
